From patent US7279338B2, “Methods for determining cellular response to stimuli” (Cargill, Incorporated, priority 2004, dated 2007)
Like-named read-outs stand apart in the source and are kept apart here.

How the values were obtained:
[1] = test system: taste bud cells in porcine taste tissue; assay: Multiphoton fluorescence intensity imaging of stimulated porcine taste tissue in flowing perfusing medium; format: cell-based
Protocol: Two papillae in close proximity to one another were loaded in this manner. The papillae were extracted from the larger piece of tissue and placed into the open chamber configuration (this work was done prior to that using the closed, gasketed chamber). The tissue was repeatedly stimulated with 20 mmol/L citric acid using the 1.0 mL/min flow rate and 1.0 mL sample loop, switched to the load position as time series data acquisition began. The imaging parameters were as follows: 400 Hz galvo scan rate, 2× zoom with 63× objective, 256×256 pixel image format, 2× frame average, 810 nm laser at 36%, and 0.5 Hz frame scan rate. The tissue was received at approximately 8:00 am, transported in oxygenated Tyrode's solution to the lab, loaded at approximately 10:00 am and imaged at approximately 11:00 am. Cells from two adjacent taste buds within the second papilla were imaged in xyzt mode at a depth of approximately 35 micrometers. […] The time series data were processed using the alignment tools development to address the tissue movement issues. […] However, the movement in this case was primarily in the x-y plane, and therefore the alignment algorithm provided sufficient alignment. […] However, the relative difference in emission and differences in slope due to photobleaching makes comparison between cells difficult. […]

[2] = test system: taste cells in porcine taste tissue (fungiform papilla taste bud); assay: Multiphoton fluorescence lifetime imaging (MP-FLIM) of stimulated porcine taste tissue in static bath; format: cell-based; conditions: for response of taste cells to stimuli (calcium green lifetime imaging): bulk addition: 0.5 mL of 25-micromolar cycloheximide, then 0.5 mL of 1-millimolar sucralose, in deionized water
Source text: Fresh porcine taste tissue was procured in the prescribed manner from a local slaughterhouse and transported, after removal from the tongue, in chilled, oxygenated Tyrode's solution to the preparation laboratory. The tissue was affixed to a coated Petri dish and taste buds iontophoretically loaded (1.0 microampere) with calcium green dextran dye (1 mmol/L in DI water) via a drawn capillary pipette. Several taste pores were loaded on a papilla, with several papillae loaded overall, providing 3-5 taste buds loaded with dye. The tissue was mounted in a chamber and placed onto the microscope stage. The sample was imaged using the 63× water-dipping objective, 60% laser power at 810-nm excitation, in xzy mode (256×256 pixels) in order to image the taste bud and surface features at once in a longitudinal section. The photomultiplier tube gain on the FLIM system was set to 85% and the initial Leica settings (non-optimized) were used to capture FLIM images of the tissue over a 10-15 minute time course.
The same field of view was then imaged using the multiphoton lifetime imaging capability of the instrument. The optical conditions for lifetime mage collection are identical to intensity-based imaging, except that in photon counting mode the collection requires 30 seconds in this case for adequate signal to noise. The lifetimes were calculated by a double exponential fit of the decay curves and color-coded based on average lifetime per pixel. Red values are shorter lifetimes in this case. […] The shortest lifetime evident in this image is associated with the apical end of the taste cell directly below the pore. At rest, the average lifetime for all of the cells in the field of view is 1,634 picoseconds. The short lifetime component of the fit was set to 350 picoseconds, an estimate of the short lifetime component based on initial calcium calibrations in order to facilitate rapid fitting of the data for comparison.
The taste bud was exposed to several gross stimuli: cycloheximide and sucralose in deionized water. The purpose of this stimulus experiment was to determine if the bud would remain viable during the time course of a stimulus and if possible, to determine the presence of a gross response via lifetime imaging. The stimulants were applied via bulk addition to the chamber holding the tissue: 0.5 mL of 25-micromolar cycloheximide was first added after removal of 1 mL buffer; 0.5 mL of 1 -millimolar sucralose added after the cycloheximide stimulus and removal of additional 1 mL buffer. The MP-FLIM image data were collected at approximately 1-minute intervals using the same optical and exposure conditions used to generate the resting image described above. […]

[3] = read-out: KD for calcium; cited from earlier work
[4] = Calcium green-1 dextran dissociation constant from MP-FLIM lifetime and intensity data in CaEGTA calcium buffers; format: binding
Protocol: Calcium buffers (CaEGTA) and calcium green-1 dextran (CaGD) were purchased from Molecular Probes. The calcium buffers provide free Ca^+2 over a nanomolar to millimolar concentration range in a matrix closely matching the pH and ionic strength of the cytosol. The lifetimes and relative contributions of these bound and unbound decays are determined by fitting multi-exponential curves to the instrumental data. Buffer kit #2 (0-39 micromoles/L free Ca^+2) was used in this work to determine the response of calcium green dextran to low calcium concentrations. Initial work was done with Buffer kit #3, but the range of free Ca^+2 (0-1000 micromoles/L) was too high for the dye chosen. Calcium ion concentration is approximately 0.1 micromoles/L in resting cell's cytoplasm and in the increases to the micromolar range upon stimulus (Pollard, 2002).
Samples were analyzed in a random order during each experiment using the MP-FLIM system and a quartz solution cell. […] Each sample produced two full fields of view (256×256) where each image pixel contains a decay curve. As the calcium green dextran was present in bound and unbound forms, double exponential fits were performed using SPCImage (version 2.7.7238.0). The double exponential decays were calculated for each sample on the entire field of view, generating 65,536 values for each field of view. The average decay for each field of view was calculated as a sum of the per pixel lifetime values weighted by the amplitudes (contributions) of each lifetime to each pixel. Table 1 details the results for the calculation of the unbound dye fluorescence lifetime. The average τ1 from the measurements is 405.6 ps, with a sample standard variance of approximately 1.0 ps.
The balance of the calcium buffer data were analyzed using the SPCImage software under similar conditions as given in Table 1, with the exception that the short lifetime was fixed to 405.6 ps in the model parameters settings box. In addition, the zero Ca^+2 buffer average lifetimes were recalculated using the fixed short lifetime value. Due to instabilities in the software interface, the short lifetime was designated as τ2 in the fit parameters box. A second order polynomial fit of average lifetime in picoseconds versus calcium concentration in micromoles/L for a calcium concentration range from 0 to 0.602 micromoles/L yields the relationship: τavg=−3047 c^2+4472 c+601, R^2=0.9976; RMSE=30.9 ps.
A significant reported advantage of fluorescence lifetime measurements is that the dependence of fluorescence lifetime on calcium concentration is insensitive to dye concentration provided the dye itself is at low enough concentrations so as to not buffer the calcium ion in the cell or the cuvette. In order to test this property in the calcium green dextran system, additional sample sets were made up with 2.5-micromoles/L dye and 9.9-micromoles/L dye in the buffer solutions. The variations in lifetime data and intensity data with dye concentrations are given in FIG. 2 and FIG. 3, respectively. The lifetime data appears to be invariant with dye concentration, where the average standard deviation (variation in lifetime with dye concentration at each calcium concentration) for the lifetime data on the order or 25 ps. In contrast, the intensity variability is significant, where the intensity of the fluorescence is dependent upon the calcium concentration and the dye concentration.
Finally, calcium green-1 dissociation constants were calculated for the various dye concentrations using lifetime and intensity-based data sets.

O=C(O)CC(O)(CC(=O)O)C(=O)O [citric acid]
baseline corrected average fluorescence intensity per cell (intracellular calcium response) ([1]; 20 mmol/L citric acid, 1.0 mL/min flow, 1.0 mL sample loop, seven cells in field of view): strong response to the stimulus in cell 1 with lower magnitude responses in other cells | response to successive stimuli ([1]; three successive 20 mmol/L citric acid stimuli, 5 minutes artificial saliva between stimuli): decrease in response to subsequent stimulus

C[C@@H]1C[C@@H]([C@H](O)CC2CC(=O)NC(=O)C2)C(=O)[C@@H](C)C1 [cycloheximide]
response of taste cells to stimuli (calcium green lifetime imaging) [2]: taste cells responded to the stimuli

OC[C@H]1O[C@H](O[C@]2(CCl)O[C@H](CCl)[C@@H](O)[C@@H]2O)[C@H](O)[C@@H](O)[C@H]1Cl [sucralose]
calcium concentration surrounding the taste cells during stimulus ([2]; 0.5 mL of 1-millimolar sucralose, bulk addition): decreased | change of calcium green lifetime around the taste cells on stimulus ([2]; 0.5 mL of 1-millimolar sucralose, bulk addition after cycloheximide stimulus, images at about 1-minute intervals): significant shortening of the calcium green lifetime around the taste cells | response of taste cells to stimuli (calcium green lifetime imaging) [2]: taste cells responded to the stimuli

calcium green-1 dextran
Kd [3]: ~0.54 µM | Kd ([4]; dye concentration 2.5 micromoles/L, read-out: Kd, Intensity Data): 0.482 µM | Kd ([4]; dye concentration 2.5 micromoles/L, read-out: Kd, Lifetime Data): 0.342 µM | Kd ([4]; dye concentration 5.0 micromoles/L, read-out: Kd, Intensity Data): 0.52 µM | Kd ([4]; dye concentration 5.0 micromoles/L, read-out: Kd, Lifetime Data): 0.329 µM | Kd ([4]; dye concentration 9.9 micromoles/L, read-out: Kd, Intensity Data): 0.382 µM | Kd ([4]; dye concentration 9.9 micromoles/L, read-out: Kd, Lifetime Data): 0.289 µM
